The values that follow come from patent publication US4317823A, “Pyrazolobenzodiazepinones, their intermediates, their compositions and their use” (Byk Gulden Lomberg Chemische Fabrik GmbH, priority 1979, dated 1982).

As a reminder, the ED50 is the midpoint of the dose-response relation. A word on the LD50: it is the dose at which mortality reaches 50%.

The subject of one series is Shay rats. The series is described as follows: Anti-ulcerogenic action (protective action on the stomach), Shay rats: pylorus ligature plus oral acetylsalicylic acid, ulcer index. It counts as in vivo. To be noted: for TQ LD50/ED50 (therapeutic quotient): LD50 i.v. mice / ED50 p.o. rats; for ED50: Rattus norvegicus, Shay rats, oral 1 hour before pylorus ligature, dose which reduces the ulcer index by 50% compared with the control group, read-out: Protective action on the stomach ED50 administered perorally to rats; for dose dependence of the anti-ulcerogenic action (dose/action curve): Shay model. As for the experimental part:
ED50 = the dose which reduces the ulcer index for the group treated
by 50% compared with the control group
The anti-ulcerogenic action is tested by a method using the so-called Shay rats:
(§1) Ulcers are provoked in rats which have been starved for 24 hours (female rats, 180 to 200 g, 4 animals in a cage with a high grille) by means of a pylorus ligature (under anaesthesia with diethyl ether) and oral administration of 100 mg/10 ml/kg of acetylsalicylic acid. The substances to be tested are administered orally (10 ml/kg) 1 hour before the pylorus ligature. The closure of the wound is effected by means of Michel's clips. The animals are killed 4 hours afterwards under ether anaesthesia by dislocating the atlas, and the stomach is cut out. The stomach is opened longitudinally and is fixed on a cork slab, the quantity of gastric juice secreted (volume) having been determined beforehand; the number and size (=diameter) of ulcers present are determined by means of a stereomicroscope at a 10-fold magnification. The product of the degree of severity (in accordance with the following rating scale) and the number of the ulcers is used as an individual ulcer index.
ulcer diameter 0.1-1.4 mm 1
The reduction in the average ulcer index in each group treated compared with that of the control group (=100%) is used as a measure of the anti-ulcerogenic effect. The ED50 indicates the dose which reduces the average ulcer index by 50%.

Series [1] is described as follows: Determination of toxicity, intravenous LD50 in mice. To be noted: mouse, in vivo, female NMRI mice, 7 days observation, 5 animals per dose, read-out: Toxicity LD50 administered intravenously to mice. As for the experimental part: LD50 = the dose at which 50% of the animals die
The toxicity investigations are carried out on female NMRI mice (body weight 22 to 26 g). The animals (5 animals per dose) receive feed and water ad lib. Various doses of the substances are administered intravenously (duration of injection 1 minute). The observation period is 7 days. The LD50 (the dose at which 50% of the animals die) is determined by means of a linear regression.

Another series deals with stomach secretion. The series is described as follows: Inhibition of stomach secretion (gastric juice volume) in rats. The following applies: 4 hours after administration of the antiulcerogenic ED50. It counts as in vivo, rat. As for the experimental part: *% inhibition = inhibition (in %) of stomach secretion 4 hours after
administration of the antiulcerogenic ED50
as §1

For the compound `Cc1nn(C)c2c1N(C(=O)CN1CCN(C)CC1)c1ccccc1NC2=O` [Compound 2, 1,3-dimethyl-4-[(4-methylpiperazin-1-yl)acetyl]-1,4,9,10-tetrahydropyrazolo[4,3-b][1,5]benzodiazepin-10-one], in the series with Shay rats, the “TQ LD50/ED50 (therapeutic quotient)” value worked out at 84.0 and the ED50 came out at 2.5 mg/kg. Moreover, the “inhibitory effect (anti-ulcerogenic action)” value in the series with Shay rats (rats, 30 mg/kg) is on record as “up to 95%”. Further, the “dose dependence of the anti-ulcerogenic action (dose/action curve)” value in the series with Shay rats (rats) is recorded as “depends strictly on the dose”. In addition, in series [1], the LD50 at 168 h was 210 mg/kg. The “% inhibition of stomach secretion in rats” value with stomach secretion is given as 20%.
`CC1(C)[C@@H](OC(=O)CCC(=O)O)CC[C@]2(C)[C@H]3C(=O)C=C4[C@@H]5C[C@@](C)(C(=O)O)CC[C@]5(C)CC[C@@]4(C)[C@]3(C)CC[C@@H]12` [Compound 1, carbenoxolone, reference compound]: in the series on Shay rats, the “TQ LD50/ED50 (therapeutic quotient)” value came out at 4.1 and the ED50 was approximately 70 mg/kg. Besides, the “increase in the anti-ulcerogenic action above the ED50” value in the series on Shay rats (even at 300 mg/kg) was “not possible to achieve any substantial increase in the anti-ulcerogenic action”. Besides, the “dose dependence of the anti-ulcerogenic action (dose/action curve)” value in the series with Shay rats (rats) is given as “flattens out very considerably”. For the same compound, the “% inhibition of stomach secretion in rats” value with stomach secretion is on record as 7%.
